# Measured values taken from patent US11845807B2, “Method and carrier complexes for delivering molecules to cells” (priority 2003, dated 2023).
# Square brackets hold non-standard residues; d marks the D form. Peptide text beside a SMILES is read from it. * marks the point of attachment. Dansyl = CN(C)c1cccc2c(S(=O)(=O)*)cccc12; Dmt = Cc1cc(O)cc(C)c1C[C@H](N)C(=O)O; 2Abz = Nc1ccccc1C(=O)O; Dap = NC[C@H](N)C(=O)O; Sar = CNCC(=O)O
# Legend:
# Huh7 cells = experiment: Cell viability by trypan blue uptake; format: cell-based; conditions: 50 μl of 1 mM conjugate in 1 ml medium, 24 hours at 37° C.
# Description: Trypan blue is only taken by cells with increased membrane permeability. Huh7 cells (1×10^6) were washed three times in DMEM, and 1 ml of fresh medium, or media containing 50 μl of 1 mM [Dmt^1]DALDA-SMCC conjugate, [D-Arg-Dmt-Lys-Phe-NH2]-SMCC conjugate, or [Phe^1]DALDA-SMCC conjugate, and incubated at 37° C. for 24 hours at 5% CO2. Cells were then washed three times with DMEM, and 1 ml of 0.4% trypan blue was added to the cells for 2 minutes. Excessive dye was removed by washing cells in cell medium and the cells were examined by light microscopy.
# Caco-2 cells [1] = experiment: Assay for peptide uptake in Caco-2 cells; format: cell-based
# Text: Assay for Peptide Uptake.
# Caco-2 monolayer = experiment: Peptide translocation across Caco-2 monolayers (Transwell, apical-to-basolateral); format: in vitro ADME; conditions: 60 min
# Description: (§1) Assay for Peptide Translocation across Caco-2 Monolayers. Monolayers of Caco-2 cells were prepared as described previously (Irie et al., J. Pharmacol. Exp. Ther. 2001, 298: 711-717), Caco-2 cells (2×10^5) were seeded on microporous membrane filters (24 mm, […]) inside Transwell cell culture chambers (Corning Glassworks, Corning, N.Y.). Each Transwell chamber was filled with 1.5 ml of medium in the apical compartment and 2.5 ml in the basolateral compartment. The cell monolayers were given fresh medium every 1 to 2 days and were used on day 28 for transport experiments.
# (§2) The apparent permeability coefficient was calculated according to the following equation: Papp=X/(t·A·Co), where X/t is the rate of uptake in the receiver compartment, A is the diffusion area (4.72 cm^2), and Co is the initial concentration in the donor compartment.
# [2] = as above; format: in vitro ADME; conditions: Caco-2; apical-to-basolateral; read-out: apparent permeability coefficient
# Description: as §1, §2
# Caco-2 cells [3] = conditions: Terada et al. 1999; confirmed in this study (FIG. 2B); cited from earlier work
# Caco-2 cells [4] = experiment: Assay for peptide efflux from Caco-2 cells; format: cell-based
# Description: Assay for Peptide Efflux from CaCo-2 Cells. […] Cells were then washed four times with 1 ml of ice-cold incubation solution to terminate uptake and then incubated with 0.5 ml of MEM for 1 h at either 37 or 4° C. to measure the efflux of peptide from cells to the incubation medium. The amount of radioactivity was determined in cell lysates and in the incubation medium.
# SH-SY5Y cells = experiment: Confocal laser scanning microscopy of fluorescent peptide uptake, SH-SY5Y cells; format: cell-based; conditions: 0.1 μM, 30 min at 4° C.
# Description: Confocal Laser Scanning Microscopy. The uptake of aromatic-cationic peptides into cells was confirmed by confocal laser scanning microscopy (CLSM) using two fluorescent peptides, [Dmt^1,dnsDap^4]DALDA (Dmt-D-Arg-Phe-dnsDap-NH2, where dnsDap is β-dansyl-1-α-β-diamino-propionic acid) and [Dmt^1.atnDap^4]DALDA (Dmt-D-Arg-Phe-atnDap-NH2, where atn is β-anthraniloyl-L-α-β-diaminopropionic acid). Caco-2 cells or SH-SYSY cells were grown as described above and were plated on (35-mm) glass bottom dishes (MatTek, Ashland, Mass.) for 2 days. […] Cells were then washed three times with ice-cold HESS and covered with 200 μl of PBS, and microscopy was performed within 10 min at room temperature using a confocal laser scanning microscope with a C-Apochromat 63×/1.2 W torr objective (Nikon, Tokyo, Japan). Excitation/emission wavelengths were set at 340/520 nm for [Dmt^1,dnsDap^4]DALDA and 320/420 nm for [Dmt^1,atnDap^4]-DALDA, respectively. For optical sectioning in z-direction, 5 to 10 frames with […] were made.
# Caco-2 cells [5] = experiment: Confocal laser scanning microscopy of fluorescent peptide uptake, Caco-2 cells; format: cell-based; conditions: 0.1 μM, 15 min at 37° C.
# Description: Confocal Laser Scanning Microscopy. The uptake of aromatic-cationic peptides into cells was confirmed by confocal laser scanning microscopy (CLSM) using two fluorescent peptides, [Dmt^1,dnsDap^4]DALDA (Dmt-D-Arg-Phe-dnsDap-NH2, where dnsDap is β-dansyl-1-α-β-diamino-propionic acid) and [Dmt^1.atnDap^4]DALDA (Dmt-D-Arg-Phe-atnDap-NH2, where atn is β-anthraniloyl-L-α-β-diaminopropionic acid). Caco-2 cells or SH-SYSY cells were grown as described above and were plated on (35-mm) glass bottom dishes (MatTek, Ashland, Mass.) for 2 days. The medium was then removed, and cells were incubated with 1 ml of HBSS containing 0.1 μM of the fluorescent peptide at either 4° C. or 37° C. for 15 min. Cells were then washed three times with ice-cold HESS and covered with 200 μl of PBS, and microscopy was performed within 10 min at room temperature using a confocal laser scanning microscope with a C-Apochromat 63×/1.2 W torr objective (Nikon, Tokyo, Japan). Excitation/emission wavelengths were set at 340/520 nm for [Dmt^1,dnsDap^4]DALDA and 320/420 nm for [Dmt^1,atnDap^4]-DALDA, respectively. For optical sectioning in z-direction, 5 to 10 frames with […] were made.
# Caco-2 cells [6] = experiment: Uptake of peptide-β-Gal conjugates into cells (β-gal staining); format: cell-based; conditions: 1 h at 37° C.
# Text: Conjugation of protein to [Dmt1]DALDA. was cross-linked to β-galactosidase (recombinant E. coli, Sigma-Aldrich) using a cross-linker SMCC (succinimidyl 4-(N-maleimidomethyl)yclohexane-1-carboxylate)(Pierce). […] Its maleimide end can then be conjugated to a sulfhydryl-containing compound to create a thioether linkage (Bioconjugate Techniques by Greg T. Hermanson, Academic Press, page 234-237). β-Gal contains abundant free sulfhydryl groups in its native state. The uptake of β-Gal provides a convenient read-out with the use of X-gal. […] This should result in “activated peptide.” The “activated peptide” was diluted 1:10 with phosphate buffer. 1 mg of β-Gal was added to 1 ml of the 1:10 “activated peptide” and mixed at 4° C. for either 2 h or overnight.
# Assay for [Dmt1]DALDA-protein conjugate uptake into cells. […] Cells were then washed 4 times with PBS. The cells were then stained with β-gal staining set (Roche) for at least 2 h at 37° C. and examined under the microscope.
# This should result in “activated peptide.” The “activated peptide” was diluted 1:10 with phosphate buffer. 1 mg of β-Gal was added to 1 ml of the 1:10 “activated peptide” and mixed at 4° C. for either 2 h or overnight.
# Cells were then washed 4 times with phosphate buffer. The cells were then stained with β-gal staining set (Roche) for at least 2 h at 37° C. and examined under the microscope.
molecule,measurement,setting,value
"CCOC(=O)OC(=O)OCC [DEPC, diethylpyrocarbonate, reference compound]",trypan blue uptake (cell viability),Huh7 cells,significant uptake of trypan blue
"CN(CC(=O)O)C(=O)CN [Gly-Sar, reference compound] (H-Gly-[Sar]-OH)",effect of DEPC on uptake,Caco-2 cells [1]; 0.2 mM DEPC,significantly inhibited
same,effect of 4° C. on uptake,Caco-2 cells [1]; 4° C. versus 37° C.,completely abolished
same,time course of uptake,"Caco-2 cells [1]; 37° C., 50 μM",continued to increase from 5 to 45 min
same,percentage translocated from the apical to the basolateral side,Caco-2 monolayer,11.9%
same,Papp A→B,[2],12.6 ×10⁻⁶ cm/s
same,pH of optimal uptake (by PEPT1),Caco-2 cells [3],6.0
same,effect of temperature (4° C.) on efflux,Caco-2 cells [4]; 4° C. versus 37° C.,significantly reduced
same,peptide effluxed into medium,"Caco-2 cells [4]; preloaded 1 h, 1 h efflux at 37° C.",39%
"Cc1cc(O)cc(C)c1C[C@H](N)C(=O)N[C@H](CCCNC(=N)N)C(=O)N[C@@H](Cc1ccccc1)C(=O)N[C@@H](CNC(=O)c1ccccc1N)C(N)=O [[Dmt^1,atnDap^4]DALDA, Dmt-D-Arg-Phe-atnDap-NH2] (H-[Dmt][dR]F[Dap](2Abz)-NH2; N-terminus assumed)",internalization at 4° C.,SH-SY5Y cells,energy-independent non-endocytotic uptake mechanism
"Cc1cc(O)cc(C)c1C[C@H](N)C(=O)N[C@H](CCCNC(=N)N)C(=O)N[C@@H](Cc1ccccc1)C(=O)N[C@@H](CNS(=O)(=O)c1cccc2c(N(C)C)cccc12)C(N)=O [[Dmt^1,dnsDap^4]DALDA, Dmt-D-Arg-Phe-dnsDap-NH2] (H-[Dmt][dR]F[Dap](Dansyl)-NH2; N-terminus assumed)",intracellular distribution of fluorescence,Caco-2 cells [5],diffuse throughout the cytoplasm with no apparent vesicular distribution
same,nuclear localisation of fluorescence,Caco-2 cells [5],completely excluded from the nucleus
same,intracellular distribution of fluorescence,Caco-2 cells [5]; dnsDap^4]DALDA,diffuse throughout the cytoplasm
"N=C(N)NCCC[C@@H](NC(=O)[C@@H](N)Cc1ccccc1)C(=O)N[C@@H](Cc1ccccc1)C(=O)N[C@@H](CCCCN)C(N)=O [[Phe^1]DALDA, Phe-D-Arg-Phe-Lys-NH2] (H-F[dR]FK-NH2; N-terminus assumed)",trypan blue uptake (cell viability),Huh7 cells,No increase in trypan blue uptake
"β-Gal with SMCC: β-Gal conjugated with SMCC alone, without peptide (control) [reference compound]",uptake of β-Gal into cells (blue cells),Caco-2 cells [6],did not enhance uptake
"β-Gal: β-galactosidase (recombinant E. coli, Sigma-Aldrich), protein cargo",uptake of β-Gal into cells (blue cells),Caco-2 cells [6],no uptake
